# Assay results reported in patent publication US9089499B2, “Para-coumaric acid or para-hydroxycinnamic acid derivatives and their use in cosmetic or dermatological compositions” (BASF Beauty Care Solutions France S.A.S., priority 2005, dated 2015).
# Like-named read-outs stand apart in the source and are kept apart here.
# Legend:
# [1] = Antiradical activity, acellular DPPH model; details: DPPH 30 minutes, absorbance 520 nm
# Protocol: The antiradical activity of the derivatives derived from the syntheses described above was evaluated in an in vitro acellular model using DPPH.
# 1,1-Diphenyl 2-picryihydrazyl, on account of its paramagnetic structure, can accept an electron or a hydrogen radical to become a stable diamagnetic molecule. This free radical, which is purple coloured in ethanol, has a strong absorption band at 520 nm.
# The addition of a compound that provides electrons results in a decolorization of the 1,1-diphenyl 2-picrylhydrazyl that is proportional to the number of electrons taken up by the radical, which may be monitored by measuring the absorbance at 520 nm.
# DPPH is incubated for 30 minutes in the presence of the derivatives described above, tested at a concentration of 10^−5M, or alone for the control. At the end of the incubation, the antiradical activity of the above derivatives is evaluated by measuring the absorbance of the solution at 520 nm.
# The antiradical activity of each test product is calculated according to the formula, as a percentage: 100−((OD520 in the presence of the test compound/OD520 in the absence of compound)×100)
# rats = test: in vivo; details: both, rat, po
# Protocol: (§1) The toxicology tests were performed on the compound obtained according to Example 1 incorporated at 10% into a 0.5% xanthan gel, by ocular evaluation on rabbits, by studying the absence of abnormal toxicity via single oral administration to rats, and by studying the sensitizing power on guinea pigs.
# (§2) The preparations described were administered in a single portion orally at a dose of 2 g/kg of body weight, to 5 male rats and 5 female rats according to a protocol inspired by the OCDE Directive No. 401 of 24 February 1987 and adapted to cosmetic products.
# in vivo = details: both, rat, po
# Protocol: as §1, §2
# eye of rabbits = test: Ocular irritation in rabbits; assay type: in vivo; details: 10% in a 0.5% xanthan gel; pure, 0.1 ml single instillation, rabbit eye
# Protocol: The preparations described above were instilled pure, in a single application, at a rate of 0.1 ml, into the eye of 3 rabbits according to the method recommenced by the OCDE Directive No. 405 of 24 February 1987 concerning the study of the “acute irritant/corrosive effect on the eyes”.
# Human tyrosinase = molecular target: T1, Human tyrosinase (Homo sapiens, UniProt P14679); test: Inhibition of human tyrosinase after 24 h application to normal human melanocytes in monolayer; assay type: cell-based; details: for inhibition at 1000 µM: 10^−3 M
# T1 construct: endogenous in cells; host or cells: normal human melanocytes (abdominal surgery; several donors of fair, brown and black phototypes)
# T1 sequence (P14679 19-529): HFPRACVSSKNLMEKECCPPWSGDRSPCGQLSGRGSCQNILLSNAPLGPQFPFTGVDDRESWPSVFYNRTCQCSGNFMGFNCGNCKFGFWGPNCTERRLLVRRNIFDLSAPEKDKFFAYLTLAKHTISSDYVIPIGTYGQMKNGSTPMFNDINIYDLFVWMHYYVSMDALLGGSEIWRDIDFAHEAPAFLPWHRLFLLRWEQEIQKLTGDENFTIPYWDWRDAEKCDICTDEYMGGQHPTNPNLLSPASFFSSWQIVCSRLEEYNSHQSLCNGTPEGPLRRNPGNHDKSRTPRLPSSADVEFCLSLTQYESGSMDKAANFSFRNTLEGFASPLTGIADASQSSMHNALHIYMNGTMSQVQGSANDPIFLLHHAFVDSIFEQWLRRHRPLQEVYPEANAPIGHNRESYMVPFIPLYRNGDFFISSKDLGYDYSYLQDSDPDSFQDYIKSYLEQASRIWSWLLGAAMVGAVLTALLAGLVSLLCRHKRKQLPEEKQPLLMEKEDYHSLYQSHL
# Protocol: Normal human melanocytes (obtained from abdominal surgery) are seeded in 24-well plates at a rate of 80 000 cells per well. They are cultured to confluence and the active agents are applied for 24 hours to the culture media. After 24 hours, the media are removed and the melanocytes are detached via mechanical action. An extraction is performed via a thermal shock and the supernatants are then recovered and incubated with MBTH (Sigma) and L-dopa (Sigma). The OD at 490 nm is measured after 30 minutes, and the tyrosinase inhibition is calculated by relating the OD at 490 nm to the protein content (measured in each culture well) of the test relative to the ratio: OD 490 nm/protein concentration of the negative control (untreated control).
# The compounds derived from the examples mentioned above were tested on melanocytes derived from various donors but of fair phototype, according to the protocol described in Example 29. The donors tested are as follows: • donor S (donor tested in Example 12): • donor 1: • donor 2: • donor 3
# The compound derived from Example 1 is tested on cultures of melanocytes obtained from 2 donors of brown phototype and from one donor of black phototype. The protocol applied is that described in Example 29. […]
# fungal tyrosinase = test: In vitro test of inhibition of isolated fungal tyrosinase (L-dopa, dopachrome OD 490 nm); assay type: biochemical; details: 490 nm
# From the text: Tyrosinase catalyses the formation of L-dopaquinone and then of dopachrome from L-dopa. Now, dopachrome is a coloured compound that may be quantified by visible spectrophotometry at 490 nm. The use of an active agent capable of modifying the enzymatic activity will be reflected by a variation in the optical density at 490 nm. The to ratio of the rates of formation of dopachrome makes it possible to determine precisely the activations or inhibitions obtained with the various test molecules.
# The sample to be tested is incubated in the presence of fungal tyrosinase (Sigma), for 5 minutes with stirring. L-Dopa (Sigma), a tyrosinase substrate, is incubated for 10 minutes in the absence of light, in the presence or absence of the test molecules. The calculation of the percentage of inhibition is performed by relating the test OD to the OD of the negative control without molecule.
# In the context of this in vitro test, the p-coumaric acid derivatives were tested at final concentrations of 10^−4M and 10^−5M.
# guinea pigs = test: Skin sensitization potential in guinea pigs (Magnusson and Kligmann maximization test); assay type: in vivo; details: 10% in a 0.5% xanthan gel
# From the text: The preparations described are subjected to the maximization test described by Magnusson and Kligmann, which protocol is in accordance with the OCDE guideline No. 406.
compound,measurement,setting,value
"COc1cc(/C=C/C(=O)NCCc2ccc(O)c(O)c2)ccc1O [Example 1, N-trans-feruloyldopamine]","Antiradical activity, Mean 10^−5 M",[1],60.01%
same,LD0,rats,greater than 2000 mg/kg
same,LD50,in vivo,> 2000 mg/kg
same,Ocular irritation classification,eye of rabbits,non-irritant to the eyes
same,inhibition at 100 µM,"Human tyrosinase; 10^−4M, 24 hours, read-out: Inhibition of human tyrosinase after application to normal human melanocytes, percentage of inhibition, Mean 10^−4M",62.3%
same,inhibition at 10 µM,"Human tyrosinase; 10^−5M, 24 hours, read-out: Inhibition of human tyrosinase after application to normal human melanocytes, percentage of inhibition, Mean 10^−5M",29.4%
same,inhibition at 1000 µM,"Human tyrosinase; B103, Donor B, brown phototype, read-out: Inhibition of tyrosinase, Mean Donor B, 10^−3 M",87.2%
same,inhibition at 100 µM,"Human tyrosinase; B104, Donor B, brown phototype, 10^−4 M, read-out: Inhibition of tyrosinase, Mean Donor B, 10^−4 M",65.8%
same,inhibition at 100 µM,"Human tyrosinase; Donor 1, fair phototype, 10^−4 M, read-out: Inhibition of tyrosinase, Mean 10^−4 M, Donor 1",63.9%
same,inhibition at 10 µM,"Human tyrosinase; Donor 1, fair phototype, 10^−5 M, read-out: Inhibition of tyrosinase, Mean 10^−5 M, Donor 1",35.8%
same,inhibition at 100 µM,"Human tyrosinase; Donor 2, fair phototype, 10^−4 M, read-out: Inhibition of tyrosinase, Mean 10^−4 M, Donor 2",59.9%
same,inhibition at 10 µM,"Human tyrosinase; Donor 2, fair phototype, 10^−5 M, read-out: Inhibition of tyrosinase, Mean 10^−5 M, Donor 2",12.9%
same,inhibition at 100 µM,"Human tyrosinase; Donor 3, fair phototype, 10^−4 M, read-out: Inhibition of tyrosinase, Mean 10^−4 M, Donor 3",50.2%
same,inhibition at 10 µM,"Human tyrosinase; Donor 3, fair phototype, 10^−5 M, read-out: Inhibition of tyrosinase, Mean 10^−5 M, Donor 3",18.9%
same,inhibition at 1000 µM,"Human tyrosinase; Donor A, brown phototype, read-out: Inhibition of tyrosinase, Mean Donor A, 10^−3 M",99.4%
same,inhibition at 100 µM,"Human tyrosinase; Donor A, brown phototype, 10^−4 M, read-out: Inhibition of tyrosinase, Mean Donor A, 10^−4 M",59.2%
same,inhibition at 10 µM,"Human tyrosinase; Donor A, brown phototype, 10^−5 M, read-out: Inhibition of tyrosinase, Mean Donor A, 10^−5 M",29.3%
same,inhibition at 10 µM,"Human tyrosinase; Donor B, brown phototype, 10^−5 M, read-out: Inhibition of tyrosinase, Mean Donor B, 10^−5 M",20.8%
same,inhibition at 100 µM,"Human tyrosinase; Donor S, fair phototype, 10^−4 M, read-out: Inhibition of tyrosinase, Mean 10^−4 M, Donor S",62.3%
same,inhibition at 10 µM,"Human tyrosinase; Donor S, fair phototype, 10^−5 M, read-out: Inhibition of tyrosinase, Mean 10^−5 M, Donor S",29.4%
same,"Inhibition of fungal tyrosinase, percentage of inhibition, Mean 10^−4M",fungal tyrosinase; 10^−4M,9.18%
same,"Inhibition of fungal tyrosinase, percentage of inhibition, Mean 10^−5M",fungal tyrosinase; 10^−5M,0%
same,Skin sensitization classification,guinea pigs,not sensitizing on contact with the skin
